Measured values as given in patent US10941138B2, “Quinoline and isoquinoline derivatives for treating pain and pain related conditions” (ESTEVE PHARMACEUTICALS, S.A., priority 2016, dated 2021).

These compounds were tested against human norepinephrine transporter (NET) (Homo sapiens (Human), UniProt P23975) (assay: Binding assay to human norepinephrine transporter (NET) ([3H]-Nisoxetin)). Details: Table 2, dual compounds, human NET enriched membranes, read-out: Ki (nM) NET Hum.
Sequence of human norepinephrine transporter (NET) (P23975 whole entry): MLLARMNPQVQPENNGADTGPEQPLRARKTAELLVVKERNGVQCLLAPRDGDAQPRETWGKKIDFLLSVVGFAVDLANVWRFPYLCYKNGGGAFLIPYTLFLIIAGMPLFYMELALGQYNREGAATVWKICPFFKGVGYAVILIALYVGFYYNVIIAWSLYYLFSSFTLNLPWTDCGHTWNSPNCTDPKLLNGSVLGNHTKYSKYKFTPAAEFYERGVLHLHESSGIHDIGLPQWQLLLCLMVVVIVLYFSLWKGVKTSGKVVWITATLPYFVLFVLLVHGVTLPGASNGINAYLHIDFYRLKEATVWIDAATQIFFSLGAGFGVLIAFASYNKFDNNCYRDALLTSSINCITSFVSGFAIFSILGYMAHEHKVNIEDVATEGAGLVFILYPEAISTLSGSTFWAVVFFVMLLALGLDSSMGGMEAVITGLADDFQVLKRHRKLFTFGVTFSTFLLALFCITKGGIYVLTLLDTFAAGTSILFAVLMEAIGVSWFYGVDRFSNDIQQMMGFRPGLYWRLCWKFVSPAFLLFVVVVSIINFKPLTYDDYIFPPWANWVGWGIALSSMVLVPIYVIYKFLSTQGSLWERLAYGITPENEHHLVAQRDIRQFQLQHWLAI
Procedure: Binding Assay to Human Norepinephrine Transporter (NET).
Human norepinephrine transporter (NET) enriched membranes (5 μg) were incubated with 5 nM of radiolabeled [3H]-Nisoxetin in assay buffer containing 50 mM Tris-HCl, 120 mM NaCl, 5 mM KCl, pH 7.4.
NSB (non specific binding) was measured by adding desipramine 10 μM. The binding of the test compound was measured at five different concentrations. After 60 min incubation at 4° C., binding reaction was terminated by filtering through Multiscreen GF/C (Millipore) presoaked in 0.5% polyethyleneimine in Vacuum Manifold Station, followed by 3 washes with ice-cold filtration buffer containing 50 mM Tris-HCl, 0.9% NaCl, pH 7.4.
Filter plates were dried at 60° C. for 1 h and 30 μl of scintillation cocktail were added to each well before radioactivity reading.
Readings were performed in a Trilux 1450 Microbeta radioactive counter (Perkin Elmer).
In the case of CNCC[C@@H](Oc1cccc2cnccc12)c1sccc1F [Example 83, (R)-3-(3-fluorothiophen-2-yl)-3-(isoquinolin-5-yloxy)-N-methylpropan-1-amine], the Ki is reported as 100 to 500 nM. CNCC[C@H](Oc1cccc2ncccc12)c1sccc1F [Example 84, (S)-3-(3-Fluorothiophen-2-yl)-N-methyl-3-(quinolin-5-yloxy)propan-1-amine] gave a Ki of 100 to 500 nM. For CNCC[C@@H](Oc1cccc2ncccc12)c1sccc1F [Example 85, (R)-3-(3-fluorothiophen-2-yl)-N-methyl-3-(quinolin-5-yloxy)propan-1-amine], the Ki was 100 to 500 nM. For CNCC[C@H](Oc1cccc2ccncc12)c1sccc1F [Example 86, (S)-3-(3-Fluorothiophen-2-yl)-3-(isoquinolin-8-yloxy)-N-methylpropan-1-amine], the Ki was 100 to 500 nM. CNCC[C@@H](Oc1cccc2ccncc12)c1sccc1F [Example 87, (R)-3-(3-fluorothiophen-2-yl)-3-(isoquinolin-8-yloxy)-N-methylpropan-1-amine] was tested, and the Ki was 100 to 500 nM. CNCC[C@@H](Oc1cnc2ccccc2c1)c1cccs1 [Example 94, (R)-N-methyl-3-(quinolin-3-yloxy)-3-(thiophen-2-yl)propan-1-amine] was tested, and the Ki was 100 to 500 nM.

The compounds below were run against human α2δ-1 subunit of Cav2.2 calcium channel (Homo sapiens (Human), UniProt P54289) (assay: Binding assay to human α2δ-1 subunit of Cav2.2 calcium channel ([3H]-Gabapentin)). Details: Table 1, human α2δ-1 enriched membranes, read-out: Ki (nM) alpha2delta Hum.
Sequence of human α2δ-1 subunit of Cav2.2 calcium channel (P54289 25-1103): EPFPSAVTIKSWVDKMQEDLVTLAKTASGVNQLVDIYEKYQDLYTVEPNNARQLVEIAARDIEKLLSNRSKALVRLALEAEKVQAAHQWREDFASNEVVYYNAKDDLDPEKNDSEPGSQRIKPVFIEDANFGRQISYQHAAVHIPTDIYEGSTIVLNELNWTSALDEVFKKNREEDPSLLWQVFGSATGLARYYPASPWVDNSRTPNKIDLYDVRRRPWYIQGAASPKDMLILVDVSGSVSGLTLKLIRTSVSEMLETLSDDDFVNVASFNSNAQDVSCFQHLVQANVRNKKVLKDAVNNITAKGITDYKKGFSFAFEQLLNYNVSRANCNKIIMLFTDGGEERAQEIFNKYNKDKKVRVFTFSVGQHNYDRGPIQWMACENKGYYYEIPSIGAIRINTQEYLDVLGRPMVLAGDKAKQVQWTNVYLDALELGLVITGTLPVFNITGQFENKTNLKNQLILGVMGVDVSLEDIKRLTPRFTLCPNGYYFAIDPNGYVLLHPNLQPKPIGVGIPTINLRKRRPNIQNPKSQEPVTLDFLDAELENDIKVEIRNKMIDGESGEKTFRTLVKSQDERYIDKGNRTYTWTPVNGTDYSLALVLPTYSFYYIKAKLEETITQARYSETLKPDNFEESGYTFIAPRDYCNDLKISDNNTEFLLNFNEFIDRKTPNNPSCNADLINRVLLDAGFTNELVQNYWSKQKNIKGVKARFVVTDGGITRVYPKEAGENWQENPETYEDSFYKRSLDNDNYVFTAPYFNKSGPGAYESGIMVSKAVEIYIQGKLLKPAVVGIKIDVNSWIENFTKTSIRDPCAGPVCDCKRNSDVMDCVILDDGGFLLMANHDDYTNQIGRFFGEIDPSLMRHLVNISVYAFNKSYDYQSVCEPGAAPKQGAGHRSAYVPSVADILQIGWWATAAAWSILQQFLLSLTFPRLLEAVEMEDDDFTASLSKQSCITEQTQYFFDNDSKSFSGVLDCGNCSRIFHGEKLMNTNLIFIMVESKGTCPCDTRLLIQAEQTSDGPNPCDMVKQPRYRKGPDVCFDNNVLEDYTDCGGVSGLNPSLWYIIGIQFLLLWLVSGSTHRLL
Work on CNCC[C@@H](Oc1cccc2cnccc12)c1sccc1F [Example 83, (R)-3-(3-fluorothiophen-2-yl)-3-(isoquinolin-5-yloxy)-N-methylpropan-1-amine] yielded a Ki of 100 to 500 nM. CNCC[C@H](Oc1cccc2ncccc12)c1sccc1F [Example 84, (S)-3-(3-Fluorothiophen-2-yl)-N-methyl-3-(quinolin-5-yloxy)propan-1-amine] showed a Ki of 500 to 3000 nM. In the case of CNCC[C@@H](Oc1cccc2ncccc12)c1sccc1F [Example 85, (R)-3-(3-fluorothiophen-2-yl)-N-methyl-3-(quinolin-5-yloxy)propan-1-amine], the Ki is reported as 500 to 3000 nM. With CNCC[C@H](Oc1cccc2ccncc12)c1sccc1F [Example 86, (S)-3-(3-Fluorothiophen-2-yl)-3-(isoquinolin-8-yloxy)-N-methylpropan-1-amine] the Ki was no less than 3000 nM. CNCC[C@@H](Oc1cccc2ccncc12)c1sccc1F [Example 87, (R)-3-(3-fluorothiophen-2-yl)-3-(isoquinolin-8-yloxy)-N-methylpropan-1-amine] gave a Ki of 100 to 500 nM. CNCC[C@@H](Oc1cnc2ccccc2c1)c1cccs1 [Example 94, (R)-N-methyl-3-(quinolin-3-yloxy)-3-(thiophen-2-yl)propan-1-amine] was tested, and the Ki was no less than 3000 nM.

Same assay, conditions: Table 2, dual compounds, human α2δ-1 enriched membranes, read-out: Ki (nM) alpha2delta Hum
With CNCC[C@@H](Oc1cccc2cnccc12)c1sccc1F [Example 83, (R)-3-(3-fluorothiophen-2-yl)-3-(isoquinolin-5-yloxy)-N-methylpropan-1-amine] the Ki was 100 to 500 nM. For CNCC[C@H](Oc1cccc2ncccc12)c1sccc1F [Example 84, (S)-3-(3-Fluorothiophen-2-yl)-N-methyl-3-(quinolin-5-yloxy)propan-1-amine], the Ki was 500 to 3000 nM. CNCC[C@@H](Oc1cccc2ncccc12)c1sccc1F [Example 85, (R)-3-(3-fluorothiophen-2-yl)-N-methyl-3-(quinolin-5-yloxy)propan-1-amine] was tested, and the Ki was 500 to 3000 nM. For CNCC[C@H](Oc1cccc2ccncc12)c1sccc1F [Example 86, (S)-3-(3-Fluorothiophen-2-yl)-3-(isoquinolin-8-yloxy)-N-methylpropan-1-amine], the Ki was no less than 3000 nM. Work on CNCC[C@@H](Oc1cccc2ccncc12)c1sccc1F [Example 87, (R)-3-(3-fluorothiophen-2-yl)-3-(isoquinolin-8-yloxy)-N-methylpropan-1-amine] yielded a Ki of 100 to 500 nM. CNCC[C@@H](Oc1cnc2ccccc2c1)c1cccs1 [Example 94, (R)-N-methyl-3-(quinolin-3-yloxy)-3-(thiophen-2-yl)propan-1-amine] showed a Ki of no less than 3000 nM.
